PMC3717777 (Toxins, 2013)
“Also recorded” adds a separate entry of the source. Where two headings read alike, the source gives them in different places.

Experiments:
(human) albumin = conditions: ochratoxin A to (human) albumin, ref [45], cited from earlier work
[1] = read-out: binding constant KD, aflatoxin B1; cited from earlier work
[2] = read-out: binding constant KD, aflatoxin B2; cited from earlier work
[3] = SPR (Biacore 3000) binding of ochratoxin A-BSA to immobilised peptide or antibody; conditions: for Kd: Biacore 3000, CM5 chip, peptide immobilised by amine coupling, ochratoxin A-BSA 0.01–100 mg L^−1, HBS-EP pH 7.4, 25 °C, 1:1 Langmuir model, estimated; for on and off rates: Biacore 3000, ochratoxin A-BSA over immobilised ligand; for on and off rates / binding affinity (in words): HBS-EP pH 7.4, 25 °C; for binding affinity (in words): Biacore 3000, ochratoxin A-BSA
Excerpt: (§1) To determine affinities for the peptide binding interaction, the peptides were immobilized on two adjacent flow cells onto a CM5 Biacore chip to a level of 251 RU (octapeptide) and 227 RU (13-mer peptide). This was in order to study the binding interaction between the peptides and ochratoxin A using a Biacore 3000. A commercial ochratoxin A-BSA conjugate was used as the analyte to obtain a significant signal response for a binding event. Initially, one saturating concentration of ochratoxin A-BSA conjugate (100 mg L^−1) was injected over each immobilized peptide ligand to confirm binding (Figure 4).
To establish the affinity of the interaction, decreasing ochratoxin A-BSA concentrations were injected onto the immobilized peptides surfaces (Figure 5).
The binding interaction analysis of the peptide receptor with ochratoxin A was carried out on a CM5 (carboxymethylated dextran) sensor chip at 25 °C. HBS-EP (0.01 M HEPES pH 7.4, 0.15 M NaCl, 3 mM EDTA, 0.005% Surfactant P20) was used as the running and dilution buffer. Peptides (100 mg L^−1 in 10 mM acetate buffer, pH 4.5) were immobilised using 0.4 M N-(3-dimethylaminopropyl)-N'-ethylcarbodiimide (EDC) and 0.1 M N-hydroxysuccinimide (NHS), applying amine coupling chemistry. In brief, a 1:1 mixture of NHS and EDC was injected as 5 μL min^−1 flow rate for 7 min, followed by injection of 75 µL peptide ligand (5 µL min^−1) for 15 min and blocking of residual binding sites with 1 M Ethanolamine, pH 8.3 (35 µL). To establish binding kinetics, various concentrations of ochratoxin A-BSA conjugate (0.01–100 mg L^−1, 60 µL in HBS-EP pH 7.4) were injected at 5 µL min^−1 over each immobilised peptide surface. BSA alone was injected as non-specific analyte control. Dissociation was monitored during 10 min without dissociating agents (flowing only running buffer). The kinetic parameters of the binding reactions were determined using BIAevaluation 3.2 software.

[4] = Solid phase microtitre plate binding assay with ochratoxin A-HRP; conditions: ochratoxin A-HRP serial dilutions, PBS pH 7.4, 1.5 h, room temperature, A 450 nm; for binding of ochratoxin A-HRP, amine-coupled peptide: amine coupling (NHS/EDC); for binding of ochratoxin A-HRP, thiol-coupled peptide: thiol coupling (SPDP)
Excerpt: Solid phase binding assay provides a platform to test the binding capacity of the designed peptides to ochratoxin A in vitro. Each peptide sequence was immobilized to the surface of a functionally modified (R2-NH) microtitre plate via either amine coupling using N-hydroxysuccinimide (NHS)/N-(3-dimethylaminopropyl)-N'-ethylcarbodiimide (EDC) coupling chemistry or thiol coupling using a heterobifunctional crosslinker (N-Succinimidyl 3-(2-pyridyldithio) propionate (SPDP)) employing the terminal cysteine residues of the peptide sequences to allow for site-directed surface attachment. Enzyme-labelled ochratoxin A-HRP was added in a concentration-dependent manner to the immobilized peptides, and the absorbance signal (blank subtracted) was compared for both peptides and immobilization techniques, as shown in Figure 3.
To test the initial binding of the peptides with ochratoxin A, the peptides were immobilized to a (NH)-functionally modified polystyrene microtitre plate via: (1) amine-coupling using a NHS/EDC linker and (2) thiol-coupling using SPDP, a hetero-bifunctional cross-linker reagent with amine and sulfhydryl groups.
Amine coupling was performed as follows: 100 mg L^−1 of each peptide solution in 10 mM carbonate buffer pH 9.6 was incubated on the NH-wells for 30 min, then 200 mM EDC and 50 mM NHS (1:1 v/v) were added and incubated for one hour. The plates were washed using PBST and blocked using 0.1 M ethanolamine for 30 min. Thiol coupling was performed via the immobilization of 1.5 mg mL^−1 SPDP in phosphate buffer (PBS) pH 7.4 incubated for 30 min at room temperature. The peptides were added at 100 mg L^−1 in a phosphate buffer pH 8.0 and incubated for another two hours at room temperature. The plates were washed using PBST and blocked for one hour using 1 g L^−1 cysteine in 1 M NaCl and 0.1 M sodium acetate, pH 4.0.
The binding of ochratoxin A-HRP conjugate in phosphate buffer pH 7.4 was performed at decreasing serial dilutions and incubated with the immobilized peptides for 1.5 h. The zero reference was determined with ochratoxin-HRP alone on 0.1 M ethanolamine blocked wells without immobilized peptide. All incubations were performed at room temperature. Detection was performed, after washing the microtiter plates using PBST, with the chromogenic HRP-substrate TMB in ready-made solution containing hydrogen peroxide. The absorbance was read after 20 min at 450 nm.

BSA = test: SPR (Biacore 3000) non-specific binding control with BSA alone; conditions: immobilised peptide, BSA alone 100 mg L^−1
Excerpt: as §1
Immobilization methods, especially via amine coupling, can reduce the activity of the immobilized molecule and, thus, have reduced binding capacity, which can be substantially different from the theoretical binding capacity. This is a common and known problem in binding interaction analysis. […]
The binding interaction analysis of the peptide receptor with ochratoxin A was carried out on a CM5 (carboxymethylated dextran) sensor chip at 25 °C. […] Dissociation was monitored during 10 min without dissociating agents (flowing only running buffer). The kinetic parameters of the binding reactions were determined using BIAevaluation 3.2 software.

[5] = Water solubility of synthesized peptides; type: physicochemical
[6] = combinatorial peptide-phage display library; cited from earlier work

Compound	Kd [3]	on and off rates [3]	binding affinity (in words) [3]	binding of ochratoxin A-HRP, amine-coupled peptide [4]	binding of ochratoxin A-HRP, thiol-coupled peptide [4]	non-specific binding to unconjugated BSA (BSA)	water solubility [5]	further results
C[C@@H]1Cc2c(Cl)cc(C(=O)N[C@@H](Cc3ccccc3)C(=O)O)c(O)c2C(=O)O1 [ochratoxin A]								Kd ((human) albumin; high affinity binding sites, read-out: KD, high affinity binding site): ~0.019 µM; Kd ((human) albumin; weak affinity sites, read-out: KD, weak affinity site): ~1 µM
Leu-Leu-Ala-Arg-NH2								Kd [1]: ~8.3 µM; Kd [2]: ~3.4 µM
N'-Cys-Ser-Ile-Val-Glu-Asp-Gly-Lys-C' [octapeptide]	11.8 µM	fast on and off rates	weak affinity interactions; also recorded: weak binding affinity	ochratoxin A-HRP binds	much higher binding signals	no non-specific binding	water soluble	
N'-Gly-Pro-Ala-Gly-Ile-Asp-Gly-Pro-Ala-Gly-Ile-Arg-Cys-C' [13-mer peptide]	15.7 µM	fast on and off rates; also recorded: faster on and off rates	weak binding affinity	decreased	good binding capacity	no non-specific binding	water soluble	binding affinity (in words) ([3]; listed as 13-mer): weak affinity interactions
N'-Ser-Asn-Leu-His-Pro-Lys-C'								Kd [6]: ~2.9 µM
